A word on the melting point: it is the temperature, or range, at which the solid turns liquid. The molecule `COc1ccc2c(c1O)-c1c3c(cc4c1C(C2)N(C)CC4)OCO3` (stereo not given) showed a melting point of 200 °C.

As to `CCOC(=O)c1sc(SC)c2c1CCCC2=O`, the melting point lay within 108 to 111 °C.

As for `Clc1ccc2c(c1)oc1c(Cl)c(Cl)cc(Cl)c12`, the melting point was 190 °C.

In the case of `CC(=O)SC1CC2=CC(=O)CC(SC(C)=O)C2(C)C2CCC3(C)C(CCC3(C)O)C12` (stereo not given), the melting point was determined as 206 °C.

Take `Brc1nc(Br)c(Br)c(Br)c1Br`: the melting point was in the range of 206 to 208 °C.

`C=CCN(CC=C)C(=O)CCl`: the melting point was 25 °C.

In the case of `CCOCCCN`, the melting point was -70 °C.

In the case of `CCOC(=O)c1c(-c2ccc(Cl)cc2)csc1N`, the melting point fell in the range of 111 to 112 °C.

`C1COC1`: the melting point is -97 °C.

`O=C(O)c1ccc(-n2cncn2)cc1` had a melting point of 318 to 320 °C.

Molecule `O=C(c1c(F)c(F)c(F)c(F)c1F)n1ccnc1` returned a melting point of 56 °C.

The molecule `CCCCCCCCCCCCCCCCCC(=O)OCCO` yielded a melting point of 60.5 °C.

`CCCCCCCCCCCCCCCc1cccc(O)c1O` yielded a melting point of 59.5 °C.

On to `N/N=C(/C(=O)c1ccc2c3c(cccc13)CC2)c1ccccc1`, for which the melting point amounted to 200 °C.

With `O=c1[nH]c2ccc([N+](=O)[O-])cc2[nH]1`, the melting point lay in the range of 314 to 317 °C.

On to `CCCCCCCCN1CCCC1=O`, for which the melting point was -25 °C.

For `OCc1ccccc1S`, the melting point amounted to 32 °C.

The molecule `CCC(C)c1cc([N+](=O)[O-])cc([N+](=O)[O-])c1OC(=O)C=C(C)C` (stereo not given) came in with a melting point of 70 °C.

On to `Cc1cc(-c2onc(C)c2C(=O)O)no1`, for which the melting point stood at 167 °C.

Molecule `O=C(Cc1ccccc1)c1ccc2c3c(ccc([N+](=O)[O-])c13)CC2` displayed a melting point of 189 °C.

As for `CC(=O)OC1CC[C@@]2(C)C(=CC[C@@H]3[C@@H]2CC[C@@]2(C)[C@H]3CC[C@]2(O)C#Cc2ccccc2)C1` (stereo not given in full), the melting point was 147 to 148 °C.

`Cc1nn(C)c2ncc(C(=O)O)c(Cl)c12` displayed a melting point of 269 °C.

As for `Cc1cc(=O)[nH]c(=S)[nH]1`, the melting point was in the range of 317 to 318 °C.

The molecule `Nc1cccnc1Oc1ccc(F)cc1F` yielded a melting point of 96 to 97 °C.

For the molecule `O=C(Cl)c1ccc(Oc2ccccc2)nc1`, the melting point fell in the range of 80 to 82 °C.

In turn, `CCC(C)C1(CC)C(=O)NC(=S)NC1=O` (stereo not given) returned a melting point of 169 °C.

For the molecule `CCN(CCO)CCCC(C)Nc1ccnc2cc(Cl)ccc12` (stereo not given), the melting point amounted to 90 °C.

For the molecule `Cc1cc([N+](=O)[O-])c(N)c([N+](=O)[O-])c1`, the melting point was determined as 172 °C.

In turn, `Nc1ccc(C=Cc2cccc(N)c2)cc1` showed a melting point of 109 °C.

The molecule `Oc1ccc2cc(Br)ccc2c1Br` showed a melting point of 105 to 107 °C.

As for `N#C/C(=N/Nc1ccc(F)cc1)c1nc(-c2ccc(Cl)cc2)cs1`, the melting point amounted to 225 °C.

In the case of `CC(=O)Oc1cc(C(C)C)c(OCCN(C)C)cc1C`, the melting point was determined as 144 °C.

Molecule `CC1=C(C(=O)OC(C)C)C(c2ccc([N+](=O)[O-])cc2)NC(=S)N1` (stereo not given) showed a melting point of 75 °C.

As for `O=[N+]([O-])c1ccccc1OC1OC(CO)C(O)C(O)C1O` (stereo not given), the melting point stood at 195 °C.

For `C#CC1(O)CCC2(C)C(CCC3C2CCC2(C)C3CCC2(C)O)C1` (stereo not given), the melting point was 190 °C.

Turning to `O=C(O)CS(=O)(=O)CC(=O)O`, the melting point stood at 182 °C.

`CC1CC2(C)C(CCC3C4CCC(O)C4(C)CCC32)CC1=O` (stereo not given) returned a melting point of 151 °C.

`Cc1cc(C)nc(Nc2ccccc2)n1` registered a melting point of 96.3 °C.

As for `CC1=CCC(C(=O)O)C1(C)C` (stereo not given), the melting point amounted to 40.5 °C.

With `Nc1ccccc1/C=C/c1cc(/C=C/c2ccccc2)c([N+](=O)[O-])cc1[N+](=O)[O-]`, the melting point is 193 °C.

For `N#Cc1cnc2[nH]ccc2c1`, the melting point worked out at 228 °C.

`CC1CCC2(O)C(C)(C)C3CCC2(C)C1C3` (stereo not given): the melting point came to 56 °C.

`O=C1CNC(=S)N1` displayed a melting point of 230 °C.

With `CCCOC(=O)C1=C(C)NC(C)=C(C(=O)OCCC)C1c1ccco1`, the melting point was determined as 112 °C.

`ClC(Cl)C(Cl)(Cl)C(Cl)(Cl)Cl` came in with a melting point of 29.4 °C.

Molecule `Nc1cc(Br)cnc1Cl` returned a melting point of 131 °C.

For the molecule `Cn1cnc2c(N)ncnc21`, the melting point is 300 to 302 °C.

Take `CCOC(=O)c1sc2nccnc2c1N`: the melting point was found to be 120 °C.

As for `N#Cc1cc(O)cc(O)c1`, the melting point worked out at 188 °C.

In the case of `CCCC(=O)c1ccc(Cl)cc1`, the melting point was 36 to 39 °C.

As to `Nc1cc(C(F)(F)F)ccc1Cl`, the melting point stood at 10 °C.

`c1ccc(-c2nc3ccccc3o2)cc1` returned a melting point of 103 °C.

For the molecule `COc1ccc(Br)cc1CC(NC(=O)OC(C)(C)C)C(=O)O` (stereo not given), the melting point worked out at 132 °C.

Regarding `CC(=O)OC1CCC2(C)C(CCC3C4CCC(=O)C4(C)CCC32)C1` (stereo not given), the melting point is 138 °C.

The molecule `COC(=O)c1ccc(C2(C)C=CC=CC=C2)cc1` gave a melting point of 61 °C.

Consider `NC(=O)CNCCS(=O)(=O)O`, for which the melting point lay in the range of 270 to 295 °C.

In turn, `Cc1ccc(C)c(C#N)c1` displayed a melting point of 13 to 14 °C.

Molecule `CCSc1nnn[nH]1` yielded a melting point of 88 to 89 °C.

Consider `COC(=O)C(F)(F)C(F)(F)C(F)(F)F`, for which the melting point is -86 °C.

`O=C(CBr)c1cccc2c1OCCCO2`: the melting point fell in the range of 55 to 56 °C.

On to `CC1(C)CC(=O)c2c(C(=O)c3cccs3)noc2C1`, for which the melting point was found to be 131 °C.

As to `COc1cc(CCC(=O)O)cc(OC)c1OC`, the melting point stood at 104 °C.

Turning to `CC12CCCC1C1CCC3CC4(CCC3(C)C1CC2)OCCO4` (stereo not given), the melting point was 117 °C.

For `C#CC(C)(C)N`, the melting point was 18 °C.

In the case of `CCCOC1CCC2C3CCC4=CC(=O)CCC4(C)C3CCC12C` (stereo not given), the melting point lay within 117 to 119 °C.

`Cc1ccc(F)c([N+](=O)[O-])c1` had a melting point of 28 to 30 °C.

Turning to `O=c1[nH]nc(S)n1C1CCCCC1`, the melting point lay in the range of 190 to 194 °C.

For the molecule `Cc1nc(NC(=O)NS(=O)(=O)c2cccs2)nc(Cl)c1C`, the melting point lay within 201 to 203 °C.

The molecule `CC1(C)c2ccccc2N(Cc2ccccc2)C12C=Cc1cc([N+](=O)[O-])ccc1O2` (stereo not given) had a melting point of 158 to 160 °C.

`O=C(Nc1ccc2nn(C3CCCCC3)nc2c1)c1ccccc1` gave a melting point of 212 °C.

Turning to `Oc1cccc2c1CCCC2`, the melting point turned out to be 70 °C.

Regarding `O=C1CCc2cccc3c2N1CC3`, the melting point was 112 °C.

The molecule `C=CCN1C(=O)CSC1=S` gave a melting point of 43 to 46 °C.

Take `O=C1OC(/C=C/c2ccc([N+](=O)[O-])cc2)Cc2ccccc21` (stereo not given): the melting point is 180 to 182 °C.

For `O=C(O)c1ccc(-c2ccc([N+](=O)[O-])cc2)o1`, the melting point was 255 to 257 °C.

For the molecule `CCC(C(=O)O)c1ccccc1` (stereo not given), the melting point stood at 47.5 °C.

The molecule `CC1=C(c2ccccc2)c2ccccc2/C1=N/NC(N)=O` came in with a melting point of 200 to 201 °C.

In turn, `CCOc1ccc(N)c([N+](=O)[O-])c1` returned a melting point of 110 to 114 °C.

In turn, `COc1ccc(-c2c(C(=O)O)sc(SC)c2C#N)cc1` displayed a melting point of 209 to 214 °C.

`Nc1c(Br)cc(Br)cc1C(O)c1ccccc1` (stereo not given): the melting point turned out to be 152 °C.

The values are drawn from a melting point compilation (Tetko et al.).
